Laboratory results as given in patent publication US10869924B2, “PD-L1 antagonist combination treatments” (MERCK PATENT GMBH, priority 2015, dated 2020).

What was measured:
human PBMC = test: Cytokine release, standard human PBMC in vitro test; type: cell-based
From the text: The combination of avelumab plus anti-4-1BB antibody PF-05082566 and anti-OX40 antibody PF-04518600 has been evaluated for cytokine release using the standard human PBMC in vitro test. The cytokine release assay was completed for PF-05082566 alone and in combination with avelumab and PF-04518600.

clear cell aRCC = conditions: cited from earlier work; for median PFS (mPFS): previously untreated patients with clear cell aRCC, axitinib 5 mg BID, single agent

Row | Compound | cytokine release (human PBMC) | median PFS (mPFS) (clear cell aRCC) [months] | stratified hazard ratio (PFS) (clear cell aRCC; axitinib vs. sorafenib, 95% CI 0.56, 1.05)
1 | PF-05082566: novel fully human IgG2 monoclonal antibody agonist of 4-1BB | did not show a significant increase in cytokine release | – | –
2 | CNC(=O)c1cc(Oc2ccc(NC(=O)Nc3ccc(Cl)c(C(F)(F)F)c3)cc2)ccn1 [sorafenib] | – | 6.5 | –
3 | CNC(=O)c1ccccc1Sc1ccc2c(/C=C/c3ccccn3)n[nH]c2c1 [axitinib, N-methyl-2-[3-((E)-2-pyridin-2-yl-vinyl)-1H-indazol-6-ylsulfanyl]-benzamide] | – | 10.1 | 0.77
